Source: patent publication US8143257B2, “Substituted phenols as active agents inhibiting VEGF production” (PTC Therapeutics, Inc., priority 2004, dated 2012)

Each compound was assayed on hypoxia-inducible endogenous VEGF expression (assay: Assay to evaluate effect on hypoxia-inducible endogenous VEGF expression (VEGF ELISA, HeLa cells)). Conditions: HeLa cells cultured 24-48 hours under hypoxic conditions (1% O2, 5% CO2); VEGF in conditioned media by ELISA; read-out: ELISA EC50 (effective concentration required to lower the amount of VEGF translation by 50%).
Assay type: cell-based
Method: Assay to Evaluate Effect on Hypoxia-Inducible Endogenous VEGF Expression
The ability of the compounds of the invention to modulate hypoxia-inducible endogenous VEGF expression is analyzed as follows. VEGF protein levels are monitored by an ELISA assay (R&D Systems). Briefly, HeLa cells are cultured for 24-48 hours under hypoxic conditions (1% O2, 5% CO2, balanced with nitrogen) in the presence or absence of a compound of the invention. The conditioned media is then assayed by ELISA, and the concentration of VEGF is calculated from the standard ELISA curve of each assay.
A dose-response analysis is performed using the ELISA assay and conditions described above. A series of, e.g., seven different concentrations are analyzed. In parallel, a dose-response cytotoxicity assay is performed using Cell Titer Glo (Promega) under the same conditions as the ELISA to ensure that the inhibition of VEGF expression is not due to the cytotoxicity. Dose-response curves are plotted using percentage inhibition versus concentration of the compound, and EC50 and CC50 values are generated for each compound with the maximal inhibition set as 100% and the minimal inhibition as 0%.
The most preferred compounds of the invention are those with μM values of 3 or less.

Row | SMILES | EC50
1 | Cc1ccc2cc(OC(=O)N3CCC(C)CC3)ccc2n1 [4-Methyl-piperidine-1-carboxylic acid 2-methyl-quinolin-6-yl ester] | > 30 µM

Same assay, conditions: Homo sapiens, HeLa, read-out: ELISA EC50 (effective concentration required to lower the amount of VEGF translation by 50%)

Row | SMILES | EC50
2 | CC(=O)c1c(OC(=O)N2CCCN(C)CC2)ccc2ccccc12 [4-Methyl-[1,4]diazepane-1-carboxylic acid 1-acetyl-naphthalen-2-yl ester] | > 30 µM
3 | Cc1ccc(OC(=O)N2CCCN(C)CC2)c(Br)c1 [4-Methyl-[1,4]diazepane-1-carboxylic acid 2-bromo-4-methyl-phenyl ester] | > 30 µM
4 | CN1CCCN(C(=O)Oc2ccccc2Br)CC1 [4-Methyl-[1,4]diazepane-1-carboxylic acid 2-bromo-phenyl ester] | > 30 µM
5 | CN1CCN(C(=O)Oc2cc(Cl)c(Cl)cc2Cl)CC1 [4-Methyl-piperazine-1-carboxylic acid 2,4,5-trichloro-phenyl ester] | > 30 µM
6 | CN1CCN(C(=O)Oc2c(Cl)cc(Cl)cc2Cl)CC1 [4-Methyl-piperazine-1-carboxylic acid 2,4,6-trichloro-phenyl ester] | 14.2 µM
7 | Cc1ccc2cc(OC(=O)N3CCN(C)CC3)ccc2n1 [4-Methyl-piperazine-1-carboxylic acid 2-methyl-quinolin-6-yl ester] | > 30 µM
8 | CN1CCN(C(=O)Oc2ncc3ccccc3c2Cl)CC1 [4-Methyl-piperazine-1-carboxylic acid 4-chloro-isoquinolin-3-yl ester] | > 10 µM
9 | CN1CCN(C(=O)Oc2cc3ccccc3cn2)CC1 [4-Methyl-piperazine-1-carboxylic acid isoquinolin-3-yl ester] | > 30 µM
10 | CC1CCN(C(=O)Oc2ccccc2Br)CC1 [4-Methyl-piperidine-1-carboxylic acid 2-bromo-phenyl ester] | > 30 µM
11 | NC(=O)C1(N2CCCCC2)CCN(C(=O)Oc2ccc3ccccc3c2Br)CC1 [4′-Carbamoyl-[1,4′]bipiperidinyl-1′-carboxylic acid 1-bromo-naphthalen-2-yl ester] | 6.54 µM
12 | CN(C)C(=O)Oc1ccc2ccccc2c1Br [Dimethyl-carbamic acid 1-bromo-naphthalen-2-yl ester] | 4 µM

Same assay, conditions: Homo sapiens; HeLa cells cultured 24-48 hours under hypoxic conditions (1% O2, 5% CO2); VEGF in conditioned media by ELISA; read-out: ELISA EC50 (effective concentration required to lower the amount of VEGF translation by 50%)

Row | SMILES | EC50
13 | CS(=O)(=O)Nc1c(OC(=O)N2CCC(C(O)(c3ccccc3)c3ccccc3)CC2)ccc2ccccc12 [4-(Hydroxy-diphenyl-methyl)-piperidine-1-carboxylic acid 1-methanesulfonylamino-naphthalen-2-yl ester] | > 5 µM
14 | O=C(Nc1ccc2ccccc2c1Br)N1CCC(C(O)(c2ccccc2)c2ccccc2)CC1 [4-(Hydroxy-diphenyl-methyl)-piperidine-1-carboxylic acid (1-bromo-naphthalen-2-yl)-amide] | 0.22 µM
15 | O=C(Nc1ccc2ccccc2c1Cl)N1CCC(C(O)(c2ccccc2)c2ccccc2)CC1 [4-(Hydroxy-diphenyl-methyl)-piperidine-1-carboxylic acid (1-chloro-naphthalen-2-yl)-amide] | 0.794 µM
16 | O=C(Nc1ccc2ccccc2c1Br)N1CCN(c2ccccc2)CC1 [4-Phenyl-piperazine-1-carboxylic acid (1-bromo-naphthalen-2-yl)-amide] | > 10 µM
17 | O=C(Nc1ccc2ccccc2c1Cl)N1CCN(c2ccccc2)CC1 [4-Phenyl-piperazine-1-carboxylic acid (1-chloro-naphthalen-2-yl)-amide] | > 10 µM
18 | CCC(NC(=O)Oc1ccc2ccccc2c1)(C(F)(F)F)C(F)(F)F [(1,1-Bis-trifluoromethyl-propyl)-carbamic acid naphthalen-2-yl ester] | > 30 µM
19 | CCc1cccc(NC(=O)Oc2ccc3ccccc3c2)c1 [(3-Ethyl-phenyl)-carbamic acid naphthalen-2-yl ester] | > 30 µM
20 | CS(=O)(=O)Nc1c(OC(=O)Oc2ccc3ccccc3c2NS(C)(=O)=O)ccc2ccccc12 [Carbonic acid bis-(1-methanesulfonylamino-naphthalen-2-yl) ester] | 4.3 µM
21 | O=C(NC1CCCCC1)Oc1ccccc1Br [Cyclohexyl-carbamic acid 2-bromo-phenyl ester] | > 30 µM
22 | O=C(NCC1CCCCC1)Oc1ccc2cc(Br)ccc2c1Br [Cyclohexylmethyl-carbamic acid 1,6-dibromo-naphthalen-2-yl ester] | > 30 µM
23 | O=C(NCC1CCCCC1)Oc1ccc2ccccc2c1Br [Cyclohexylmethyl-carbamic acid 1-bromo-naphthalen-2-yl ester] | > 30 µM
24 | CCN(CC)C(=O)Oc1ccc2ccccc2c1Br [Diethyl-carbamic acid 1-bromo-naphthalen-2-yl ester] | 2 µM

More lines, now with the values ahead:

Row | EC50 | SMILES
25 | 2.6 µM | CC(=O)c1c(OC(=O)N2CCC(Cc3ccccc3)CC2)ccc2ccccc12 [4-Benzyl-piperidine-1-carboxylic acid 1-acetyl-naphthalen-2-yl ester]
26 | 0.259 µM | O=C(Oc1ccc2ccccc2c1Br)N1CCC(Cc2ccccc2)CC1 [4-Benzyl-piperidine-1-carboxylic acid 1-bromo-naphthalen-2-yl ester]
27 | > 5 µM | CS(=O)(=O)Nc1c(OC(=O)N2CCC(Cc3ccccc3)CC2)ccc2ccccc12 [4-Benzyl-piperidine-1-carboxylic acid 1-methanesulfonylamino-naphthalen-2-yl ester]
28 | 7.09 µM | O=C(Oc1cc(Cl)c(Cl)cc1Cl)N1CCC(Cc2ccccc2)CC1 [4-Benzyl-piperidine-1-carboxylic acid 2,4,5-trichloro-phenyl ester]
29 | 3.72 µM | O=C(Oc1c(Cl)cc(Cl)cc1Cl)N1CCC(Cc2ccccc2)CC1 [4-Benzyl-piperidine-1-carboxylic acid 2,4,6-trichloro-phenyl ester]
30 | > 30 µM | Cc1ccc(OC(=O)N2CCC(Cc3ccccc3)CC2)c(Br)c1 [4-Benzyl-piperidine-1-carboxylic acid 2-bromo-4-methyl-phenyl ester]
31 | > 30 µM | O=C(Oc1ccccc1Br)N1CCC(Cc2ccccc2)CC1 [4-Benzyl-piperidine-1-carboxylic acid 2-bromo-phenyl ester]
32 | > 30 µM | Cc1ccc2cc(OC(=O)N3CCC(Cc4ccccc4)CC3)ccc2n1 [4-Benzyl-piperidine-1-carboxylic acid 2-methyl-quinolin-6-yl ester]
33 | > 10 µM | O=C(Nc1ccc2ccccc2c1Br)N1CCC(Cc2ccccc2)CC1 [4-Benzyl-piperidine-1-carboxylic acid (1-bromo-naphthalen-2-yl)-amide]
34 | > 10 µM | O=C(Nc1ccc2ccccc2c1Cl)N1CCC(Cc2ccccc2)CC1 [4-Benzyl-piperidine-1-carboxylic acid (1-chloro-naphthalen-2-yl)-amide]
35 | > 30 µM | O=C(Oc1cc2ccccc2cn1)N1CCC(Cc2ccccc2)CC1 [4-Benzyl-piperidine-1-carboxylic acid isoquinolin-3-yl ester]
36 | 4.39 µM | O=C(Nc1ccc2ccccc2c1)N1CCC(Cc2ccccc2)CC1 [4-Benzyl-piperidine-1-carboxylic acid naphthalen-2-ylamide]
37 | 1.85 µM | CC(=O)c1c(OC(=O)N2CCC(C)CC2)ccc2ccccc12 [4-Methyl-piperidine-1-carboxylic acid 1-acetyl-naphthalen-2-yl ester]
38 | 0.469 µM | CC1CCN(C(=O)Oc2ccc3ccccc3c2Br)CC1 [4-Methyl-piperidine-1-carboxylic acid 1-bromo-naphthalen-2-yl ester]
39 | 16.2 µM | CC1CCN(C(=O)Oc2cc(Cl)c(Cl)cc2Cl)CC1 [4-Methyl-piperidine-1-carboxylic acid 2,4,5-trichloro-phenyl ester]
40 | > 30 µM | CC1CCN(C(=O)Oc2c(Cl)cc(Cl)cc2Cl)CC1 [4-Methyl-piperidine-1-carboxylic acid 2,4,6-trichloro-phenyl ester]
41 | > 30 µM | Cc1ccc(OC(=O)N2CCC(C)CC2)c(Br)c1 [4-Methyl-piperidine-1-carboxylic acid 2-bromo-4-methyl-phenyl ester]
42 | > 30 µM | CC1CCN(C(=O)Oc2cc3ccccc3cn2)CC1 [4-Methyl-piperidine-1-carboxylic acid isoquinolin-3-yl ester]
43 | > 10 µM | COc1ccc2ccc(OC(=O)N3CCN(c4ccccc4)CC3)c(Br)c2c1 [4-Phenyl-piperazine-1-carboxylic acid 1-bromo-7-methoxy-naphthalen-2-yl ester]
44 | > 5 µM | CS(=O)(=O)Nc1c(OC(=O)N2CCN(c3ccccc3)CC2)ccc2ccccc12 [4-Phenyl-piperazine-1-carboxylic acid 1-methanesulfonylamino-naphthalen-2-yl ester]
45 | > 30 µM | O=C(Oc1cc(Cl)c(Cl)cc1Cl)N1CCN(c2ccccc2)CC1 [4-Phenyl-piperazine-1-carboxylic acid 2,4,5-trichloro-phenyl ester]
46 | 5.78 µM | O=C(Oc1c(Cl)cc(Cl)cc1Cl)N1CCN(c2ccccc2)CC1 [4-Phenyl-piperazine-1-carboxylic acid 2,4,6-trichloro-phenyl ester]
47 | > 30 µM | Cc1ccc2cc(OC(=O)N3CCN(c4ccccc4)CC3)ccc2n1 [4-Phenyl-piperazine-1-carboxylic acid 2-methyl-quionolin-6-yl ester]
48 | > 30 µM | O=C(Oc1cc2ccccc2cn1)N1CCN(c2ccccc2)CC1 [4-Phenyl-piperazine-1-carboxylic acid isoquinolin-3-yl ester]
